The target of test [1] is T1, Progesterone receptor (Homo sapiens, UniProt P06401).
T1 sequence (P06401 whole entry): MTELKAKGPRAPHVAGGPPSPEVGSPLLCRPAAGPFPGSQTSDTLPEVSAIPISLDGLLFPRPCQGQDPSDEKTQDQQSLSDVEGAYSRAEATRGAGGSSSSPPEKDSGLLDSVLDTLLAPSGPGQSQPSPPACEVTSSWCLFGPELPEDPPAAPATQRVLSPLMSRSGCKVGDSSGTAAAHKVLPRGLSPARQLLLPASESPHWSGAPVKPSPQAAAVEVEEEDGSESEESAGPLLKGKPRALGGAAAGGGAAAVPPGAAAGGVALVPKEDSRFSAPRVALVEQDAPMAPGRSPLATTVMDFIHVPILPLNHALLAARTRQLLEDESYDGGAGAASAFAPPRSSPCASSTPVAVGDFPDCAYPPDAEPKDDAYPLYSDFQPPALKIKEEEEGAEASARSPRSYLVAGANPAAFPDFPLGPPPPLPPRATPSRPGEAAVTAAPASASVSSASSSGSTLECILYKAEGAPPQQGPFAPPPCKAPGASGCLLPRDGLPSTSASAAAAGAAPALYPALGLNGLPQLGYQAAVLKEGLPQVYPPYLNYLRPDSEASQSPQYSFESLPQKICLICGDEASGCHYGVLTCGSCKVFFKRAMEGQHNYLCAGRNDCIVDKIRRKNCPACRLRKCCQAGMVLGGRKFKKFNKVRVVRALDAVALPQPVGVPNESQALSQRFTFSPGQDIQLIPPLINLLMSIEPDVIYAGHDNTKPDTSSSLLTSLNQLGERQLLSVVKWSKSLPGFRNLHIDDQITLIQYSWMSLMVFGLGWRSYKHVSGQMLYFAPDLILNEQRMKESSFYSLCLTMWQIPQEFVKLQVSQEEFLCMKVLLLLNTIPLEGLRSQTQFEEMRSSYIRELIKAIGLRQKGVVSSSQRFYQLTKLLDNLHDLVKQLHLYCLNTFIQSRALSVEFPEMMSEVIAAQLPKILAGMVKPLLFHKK
Kind of test: Binding affinity to progesterone receptor.

In test [2] the target is T2, Glucocorticoid receptor (Homo sapiens, UniProt P04150).
T2 sequence (P04150 whole entry): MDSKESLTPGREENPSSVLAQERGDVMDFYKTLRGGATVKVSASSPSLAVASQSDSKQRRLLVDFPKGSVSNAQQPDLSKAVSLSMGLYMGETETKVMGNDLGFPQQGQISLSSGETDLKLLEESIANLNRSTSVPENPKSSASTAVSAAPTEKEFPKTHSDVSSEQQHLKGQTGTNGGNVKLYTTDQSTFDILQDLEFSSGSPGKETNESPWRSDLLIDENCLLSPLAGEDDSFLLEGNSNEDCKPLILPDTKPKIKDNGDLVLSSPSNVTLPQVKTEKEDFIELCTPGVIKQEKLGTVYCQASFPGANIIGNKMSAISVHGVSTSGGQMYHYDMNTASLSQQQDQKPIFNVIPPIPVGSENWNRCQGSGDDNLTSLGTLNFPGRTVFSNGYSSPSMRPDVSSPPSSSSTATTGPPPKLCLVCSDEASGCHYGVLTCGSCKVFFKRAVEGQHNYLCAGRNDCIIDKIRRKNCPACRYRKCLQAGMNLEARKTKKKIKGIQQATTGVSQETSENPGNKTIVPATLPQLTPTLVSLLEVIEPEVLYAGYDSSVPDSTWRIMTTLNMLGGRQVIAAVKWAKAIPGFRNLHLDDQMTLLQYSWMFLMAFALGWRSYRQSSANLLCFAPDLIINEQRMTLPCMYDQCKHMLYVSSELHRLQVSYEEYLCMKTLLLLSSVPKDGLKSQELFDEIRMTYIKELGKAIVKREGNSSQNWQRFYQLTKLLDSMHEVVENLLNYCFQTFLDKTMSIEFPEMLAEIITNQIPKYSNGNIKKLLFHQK
The format is functional, cell-based, CV-1.
Description: Agonist activity at GR expressed in african green monkey CV1 cells transfected with luciferase gene linked to MMTV promoter assessed as induction of luciferase transactivation activity

Test [3] has as its target T2, Glucocorticoid receptor. Type of test: cell-based, NHDF.
Description: Transrepression activity at GR expressed in NHDF cells assessed as IL-1beta-mediated IL-6 transcription by ELISA
Test [4] deals with T2, Glucocorticoid receptor. Type of test: cell-based, HepG2.
Description: Transrepression activity at GR expressed in IL-1beta- and TNFalpha-stimulated HepG2 cells assessed as inhibition of NFKB- or AP-1 mediated E-selectin transcription by luciferase reporter gene assay
Test [5] has as its target T2, Glucocorticoid receptor.
Description: Displacement of radiolabeled Dexamethasone from GR
In test [6] the target is T3, Mineralocorticoid receptor (Homo sapiens, UniProt P08235).
T3 sequence (P08235 whole entry): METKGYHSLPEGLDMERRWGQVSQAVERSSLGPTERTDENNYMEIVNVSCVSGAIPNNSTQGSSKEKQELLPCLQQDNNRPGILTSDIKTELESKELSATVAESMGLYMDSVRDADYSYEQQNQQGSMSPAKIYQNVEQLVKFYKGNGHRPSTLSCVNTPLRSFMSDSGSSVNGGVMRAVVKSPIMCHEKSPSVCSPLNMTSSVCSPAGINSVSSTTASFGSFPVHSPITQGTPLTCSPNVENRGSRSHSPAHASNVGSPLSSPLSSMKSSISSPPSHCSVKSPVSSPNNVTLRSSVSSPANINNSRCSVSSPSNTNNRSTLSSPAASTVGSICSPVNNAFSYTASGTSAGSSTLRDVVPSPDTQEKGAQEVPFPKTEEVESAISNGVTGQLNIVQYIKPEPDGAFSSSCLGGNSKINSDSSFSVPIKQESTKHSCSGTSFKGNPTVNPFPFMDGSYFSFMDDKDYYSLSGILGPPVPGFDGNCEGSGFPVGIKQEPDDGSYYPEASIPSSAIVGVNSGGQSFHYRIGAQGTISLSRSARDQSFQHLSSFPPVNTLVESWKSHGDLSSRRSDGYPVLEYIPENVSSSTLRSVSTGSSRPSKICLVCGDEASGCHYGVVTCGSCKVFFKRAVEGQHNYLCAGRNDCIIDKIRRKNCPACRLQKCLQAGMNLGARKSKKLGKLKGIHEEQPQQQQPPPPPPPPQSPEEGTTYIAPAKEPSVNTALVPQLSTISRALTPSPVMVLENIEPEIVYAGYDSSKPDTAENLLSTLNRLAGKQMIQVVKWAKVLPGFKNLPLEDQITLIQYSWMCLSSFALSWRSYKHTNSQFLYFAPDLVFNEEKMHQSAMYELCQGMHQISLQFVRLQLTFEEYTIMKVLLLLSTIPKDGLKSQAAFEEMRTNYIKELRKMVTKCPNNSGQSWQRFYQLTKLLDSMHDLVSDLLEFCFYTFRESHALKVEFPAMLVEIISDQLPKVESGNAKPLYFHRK
Kind of test: Binding affinity to mineralocorticoid receptor.

For test [7], the target named is T2, Glucocorticoid receptor. The format is functional, cell-based, H4IIEC3.
Description: Agonist activity at GR expressed in rat H4IIEC3 cells assessed as induction of PEPCK transactivation by luciferase reporter gene assay

With `C[C@H]1c2c(cc(F)c(-c3cccc4cc[nH]c34)c2F)NC(C)(C)[C@@H]1OC(=O)Nc1cccc(C#N)c1` (racemic), the Ki – broadly, a dissociation constant, usually derived from enzyme kinetics or from competition with a known ligand – came out at 662 nM in test [1], 13.7 nM in test [5] and 1470 nM in test [6]. Also, the EC50 – broadly, the concentration needed to bring the measured effect to its halfway point – in test [2] turned out to be 24 nM; in test [7], 287 nM. In addition, the IC50 (usually the concentration that gives 50% inhibition) in test [3] turned out to be 38 nM; in test [4] it was 13 nM.
In the case of `C[C@H]1c2c(cc(F)c(-c3cccc4c(Cl)c[nH]c34)c2F)NC(C)(C)[C@@H]1OC(=O)NCc1ccccc1` (racemic), the inhibitory constant (Ki) in test [1] was 160 nM; in test [5], 6.8 nM; in test [6], 656 nM. Further, the results for the EC50 in test [2] and in test [7] were 17 nM and 454 nM, respectively. In addition, the half-maximal inhibitory concentration (IC50) in test [3] stood at 40 nM; in test [4], 44 nM.
On to `C[C@H]1c2c(cc(F)c(-c3cccc4c(Cl)c[nH]c34)c2F)NC(C)(C)[C@@H]1OC(=O)NC1CCCCC1` (racemic), for which the inhibition constant (Ki) in test [1] came to 93 nM; in test [5], 4.3 nM; in test [6], 2250 nM. Besides, the concentration for a half-maximal effect (EC50) in test [2] is 70 nM; in test [7], 435 nM. Moreover, the results for the half-inhibitory concentration (IC50) in test [3] and in test [4] were 23 nM and 15 nM, respectively.
As for `CC(=O)c1ccc(NC(=O)O[C@@H]2[C@@H](C)c3c(cc(F)c(-c4cccc5cc[nH]c45)c3F)NC2(C)C)cc1` (racemic), the Ki in test [1] amounted to 231 nM; in test [5], 2.9 nM; in test [6] it was 1110 nM. Also, the concentration for a half-maximal effect (EC50) in test [2] is 16 nM; in test [7] it was 182 nM. Further, the IC50 in test [3] stood at 31 nM; in test [4], 23 nM.
Regarding `CC(=O)c1cccc(NC(=O)O[C@@H]2[C@@H](C)c3c(cc(F)c(-c4cccc5cc[nH]c45)c3F)NC2(C)C)c1` (racemic), the results for the inhibitory constant (Ki) in test [1], in test [5] and in test [6] were 680 nM, 9.4 nM and 3170 nM, respectively. Besides, the EC50 in test [2] was 29 nM; in test [7], 333 nM. The IC50 in test [3] stood at 22 nM; in test [4] it was 49 nM.
For `CC(C)NC(=O)O[C@@H]1[C@@H](C)c2c(cc(F)c(-c3cccc4c(Cl)c[nH]c34)c2F)NC1(C)C` (racemic), the figures for the inhibition constant (Ki) in test [1], in test [5] and in test [6] were 213 nM, 7.8 nM and 378 nM, respectively. Also, the values for the concentration giving a half-maximal response (EC50) in test [2] and in test [7] were 89 nM and 361 nM, respectively. The IC50 was determined as 17 nM in test [3] and 45 nM in test [4].

For the origin of these results see ChEMBL document CHEMBL1681769, “Tetrahydroquinolin-3-yl carbamate glucocorticoid receptor agonists with reduced PEPCK activation” (Bioorg Med Chem Lett, 2011).
